Test results: patent US10799442B2, “Compounds useful in the treatment and/or care of the skin, hair, nails, and/or mucous membranes” (LUBRIZOL ADVANCED MATERIALS, INC., priority 2015, dated 2020)

Tests used:
Type in all cases: cell-based, Human
MYC = experiment: Modulation of stem cell markers in HEKa, Real Time PCR Arrays (MYC mRNA); settings: 48 hours
Description: (§1) The candidate compound is evaluated for the modulation of several stem cell markers, those transcription factors regulated by miRNA145 (SOX2, OCT4, KLF4 and MYC). Gene expression profiles are analyzed by Real Time PCR Arrays using a 96-well panel for use with SYBR® Green (BioRad) to detect mRNA expression levels of stem cell markers plus three housekeeping genes, and five controls, in Human Epidermal Keratinocytes from adult (HEKa) (Cascade Biologics).
(§2) HEKa cells are seeded at 6.0×10^5 cells/well in 6-well plates and incubated in culture medium, Epilife with defined Growth Supplement (EDGS) (Cascade Biologics), for 24 hours at 37° C. in a water-saturated atmosphere of 95% air and 5% CO2. After 24 hours, the medium is removed and the cells are incubated with the synthetic peptide DD14024 at several concentrations in a culture medium. Cells are incubated with culture medium only and these provide the basal conditions. After 48 hours of treatment at 37° C. in a CO2 incubator, the cells are lysed directly in the wells, and RNA is purified following the protocol described on the RNeasy Mini kit (Qiagen) according to the manufacturer's protocol. After RNA elution, quantification and analysis of purity of RNA samples are performed with a biophotometer (Eppendorf). For each sample, 2 μg of high quality RNA is retrotranscribed with iScript Advanced (BioRad) in a final volume of 20 μl. The complete reaction mix is incubated in a thermal cycler (Eppendorf) at 42° C. for 30 minutes and the reaction is stopped at 85° C. for 5 minutes (?). Complementary DNA is amplified by qPCR in a real-time PCR thermocycler (BioRad) using SYBR Green Supermix (BioRad) in the 96-well panel for use with SYBR® Green (BioRad). SYBR Green binds to double-stranded DNA molecules and emits fluorescence which is quantified; the fluorescence intensity is proportional to the amount of the product in the PCR reaction. […] Fold change relative to the expression of the sample genes and reference genes is calculated using normalized expression (ΔΔ(Ct)) method using CFX Manager Software (BioRad). […]

KLF4 = experiment: Modulation of stem cell markers in HEKa, Real Time PCR Arrays (KLF4 mRNA); settings: 48 hours
Description: as §1, §2

SOX2 = experiment: Modulation of stem cell markers in HEKa, Real Time PCR Arrays (SOX2 mRNA); settings: 48 hours
Description: as §1, §2

Keratin 10 = experiment: Keratins expression profile in HEKa with 1 mM CaCl2, Real Time PCR Arrays (Keratin 10); settings: Keratin 10 mRNA, 48 hours
Description: (§3) The candidate compound is assayed for its ability to recover the basal keratinocyte state. The keratinocytes of the four layers of the epidermis present different expression patterns of keratins. Basal keratinocytes strongly express Keratin 14 and when differentiated, Keratin 10 is increased. To elucidate the keratinocyte state (basal or differentiated), the expression profile of keratins is analyzed by Real Time PCR Arrays, using a 96-well panel for use with SYBR® Green (BioRad) to detect mRNA expression levels of two keratin genes (Keratins 10 and 14) plus three housekeeping genes, and five controls, in Human Epidermal Keratinocytes from adult (HEKa) (Cascade Biologics).
(§4) HEKa cells are seeded at 6.0×10^5 cells/well in 6-well plates and incubated in culture medium Epilife with defined Growth Supplement (EDGS) (Cascade Biologics), for 24 hours at 37° C. in a water-saturated atmosphere of 95% air and 5% CO2. After 24 hours, the medium is removed and the cells are incubated with the synthetic peptide candidate at several concentrations in culture medium that contains 1 mM CaCl2) (Sigma) to induce differentiation of keratinocytes. Cells are incubated with 1 mM CaCl2) in culture medium and this provides a positive control of differentiation. Cells are incubated with culture medium only and these provide basal conditions. After 48 hours of treatment at 37° C. in a CO2 incubator, the cells are lysed directly in the wells, and RNA is purified following the protocol described on the RNeasy Mini kit (Qiagen) according to the manufacture's protocol. After RNA elution, quantification and analysis of purity of RNA samples are performed with a biophotometer (Eppendorf). […] SYBR Green binds to double-stranded DNA molecules and emits fluorescence which is quantified; the fluorescence intensity is proportional to the amount of the product in the PCR reaction. […] Fold change relative to the expression of the sample genes and reference genes is calculated using normalized expression (ΔΔ(Ct)) method using CFX Manager Software (BioRad).

Keratin 14 = experiment: Keratins expression profile in HEKa with 1 mM CaCl2, Real Time PCR Arrays (Keratin 14); settings: Keratin 14 mRNA, 48 hours
Description: as §3, §4

OCT4 = experiment: Modulation of stem cell markers in HEKa, Real Time PCR Arrays (OCT4 mRNA); settings: 48 hours
Description: as §1, §2

Ac-QEMRMQ-OH [DD14024, Ac-Gln-Glu-Met-Arg-Met-Gln-OH]
Fold induction respect to basal conditions (MYC; 0.001 mg/ml): 0.91 ± 0.05 | Fold induction respect to basal conditions (MYC; 0.005 mg/ml): 0.65 ± 0.08 | Fold induction respect to basal conditions (MYC; 0.01 mg/ml): 0.65 ± 0.07 | Fold induction respect to basal conditions (KLF4; 0.001 mg/ml): 1.66 ± 0.18 | Fold induction respect to basal conditions (KLF4; 0.005 mg/ml): 2.42 ± 0.50 | Fold induction respect to basal conditions (KLF4; 0.01 mg/ml): 1.71 ± 0.40 | Fold induction respect to basal conditions (SOX2; 0.001 mg/ml): 1.62 ± 0.18 | Fold induction respect to basal conditions (SOX2; 0.005 mg/ml): 3.00 ± 0.55 | Fold induction respect to basal conditions (SOX2; 0.01 mg/ml): 2.81 ± 0.26 | Fold induction respect to positive control of differentiation (Keratin 10; 1 mM CaCl2, 0.001 mg/ml): 0.68 ± 0.04 | Fold induction respect to positive control of differentiation (Keratin 10; 1 mM CaCl2, 0.005 mg/ml): 0.60 ± 0.02 | Fold induction respect to positive control of differentiation (Keratin 10; 1 mM CaCl2, 0.01 mg/ml): 0.72 ± 0.06 | Fold induction respect to positive control of differentiation (Keratin 14; 1 mM CaCl2, 0.001 mg/ml): 1.29 ± 0.15 | Fold induction respect to positive control of differentiation (Keratin 14; 1 mM CaCl2, 0.005 mg/ml): 1.36 ± 0.15 | Fold induction respect to positive control of differentiation (Keratin 14; 1 mM CaCl2, 0.01 mg/ml): 1.30 ± 0.09 | Fold induction respect to basal conditions (OCT4; 0.001 mg/ml): 1.65 ± 0.13 | Fold induction respect to basal conditions (OCT4; 0.005 mg/ml): 1.81 ± 0.28 | Fold induction respect to basal conditions (OCT4; 0.01 mg/ml): 1.71 ± 0.29
